Reference: article PMC9024521, “4-Heteroaryl Substituted Amino-3,5-Dicyanopyridines as New Adenosine Receptor Ligands: Novel Insights on Structure-Activity Relationships and Perspectives” (Pharmaceuticals, 2022)

Assays:
[1] = In vitro permeation, vertical Franz diffusion cell; type: in vitro ADME; details: cellulose nitrate membrane impregnated with lauryl alcohol, PBS pH 7.4 + Tween 80 2% w/w, 37 °C
Experimental: Compounds 1 and 5 were evaluated for their capability to penetrate the artificial membrane simulating the epidermal barrier. Permeation flux was assessed by using vertical Franz diffusion cells.
Compound assay was performed by HPLC (Merck Hitachi Elite LaChrom apparatus, Darmstadt, Germany), equipped with a L-2400 UV–Vis detector and an L-2130 isocratic pump. The mobile phase A was water, and the mobile phase B was methanol. Gradient steps were programmed as follows: A–B 60%–40% at time 0, ramped to 70% B in 3 min, held at 70% for 2 min and returned to initial conditions during 3 min. A Hibar Purospher® RP-8e (150 × 4.6 mm, 5 µm pore size) was the stationary phase. UV detection was performed at 292 nm. The injection volume was 20 µL, the flow rate was 1.2 mL/min and the column temperature was 40 ± 1 °C. Under these conditions, the compounds retention time was 5.30 ± 0.01 min. The method was validated for linearity (r^2 = 0.998; r^2 = 0.997), limit of quantification (3.03 µg/mL; 4.50 µg/mL) and limit of detection (0.91 µg/mL; 1.35 µg/mL) for P293BL and P297, respectively.
In vitro permeation studies were carried out by using vertical Franz diffusion cell (Rofarma, Gaggiano, Italy). […] A correction for the cumulative dilution, due to the sample replacement with an equal volume of fresh medium, was calculated. […]

hA2AAR [2] = molecular target: T1, hA2AAR (Homo sapiens, UniProt P29274); assay: cAMP assay in hA2A CHO cells; type: cell-based; details: for EC50: cAMP assay, hA2A CHO cells; for hA2AAR Efficacy: normalized: CGS21680 full agonist = 100%
T1 construct: host or cells: CHO cells
T1 sequence (P29274 whole entry): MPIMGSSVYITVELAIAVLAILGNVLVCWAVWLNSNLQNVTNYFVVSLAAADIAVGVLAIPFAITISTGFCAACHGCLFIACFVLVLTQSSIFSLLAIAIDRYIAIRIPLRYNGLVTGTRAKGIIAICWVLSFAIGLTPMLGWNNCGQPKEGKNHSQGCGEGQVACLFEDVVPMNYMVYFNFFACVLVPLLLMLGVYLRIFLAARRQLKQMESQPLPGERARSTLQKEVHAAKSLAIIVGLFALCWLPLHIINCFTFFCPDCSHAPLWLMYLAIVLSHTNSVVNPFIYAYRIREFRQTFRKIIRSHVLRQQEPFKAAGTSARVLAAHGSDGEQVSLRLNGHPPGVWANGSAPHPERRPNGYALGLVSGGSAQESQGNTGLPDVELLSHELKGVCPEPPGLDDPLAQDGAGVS
Experimental: The amino-3,5-dicyanopyridines 1–21 were tested for their affinity at hA1, hA2A and hA3 ARs, stably transfected in Chinese Hamster Ovary (CHO) cells. Moreover, they were also studied as hA2B agonists by evaluating their stimulatory effect on cAMP production in CHO cells, stably expressing the hA2B AR. […] Due to their interesting pan profile, both compounds 1 and 5 were evaluated as AR agonists also at the hA2A and hA3 subtypes.
(§1) CHO cells transfected with hA1, hA2A, hA2B and hA3 ARs (Perkin Elmer, Boston, MA, USA) were grown adherently and maintained in Dulbecco’s modified Eagle’s medium with nutrient mixture F12, containing 10% fetal calf serum, penicillin (100 U/mL), streptomycin (100 μg/mL), L-glutamine (2 mM) and geneticine (G418; 0.2 mg/mL), at 37 °C, in 5% CO2/95% air, until their use in cAMP assays. For membrane preparation, the culture medium was removed, and the cells were washed with phosphate-buffered saline and scraped off T75 flasks in ice-cold hypotonic buffer (5 mM Tris HCl, 1 mM EDTA, pH 7.4). The cell suspension was homogenized with a Polytron, centrifuged for 30 min at 40,000× g, at 4 °C, and the resulting membrane pellet was used for competition binding experiments.
CHO cells transfected with hAR subtypes were washed with phosphate-buffered saline, detached with tripsine and centrifuged for 10 min at 200× g. Cells were seeded in a 96-well white half-area microplate (Perkin Elmer, Boston, USA) in a stimulation buffer composed of Hank Balanced Salt Solution, 5 mM HEPES, 0.5 mM Ro 20–1724, 0.1% BSA. The cAMP levels were then quantified by using the AlphaScreen cAMP Detection Kit (Perkin Elmer, Boston, MA, USA), following the manufacturer’s instructions. At the end of the experiments, the plates were read with a Perkin Elmer EnSight Multimode Plate Reader.

hA2AAR [3] = molecular target: T1, hA2AAR; assay: Competition binding, [3H]ZM241385, hA2A CHO cell membranes; details: displacement of [3H]ZM241385, hA2A CHO cells; mean ± SEM of four assays
Experimental: as §1
All synthesized compounds were tested for their affinity to hA1, hA2A and hA3 ARs. Competition experiments to hA1AR were carried out by incubating 1 nM [^3H]-8-cyclopentyl-1,3-dipropylxanthine ([^3H]-DPCPX) with membrane suspension (50 μg of protein/100 μL) and different concentrations of the examined compounds at 25 °C for 90 min in 50 mM Tris HCl, pH 7.4. Non-specific binding was defined as binding in the presence of 1 μM DPCPX and was always <10% of the total binding. Inhibition experiments to hA2A ARs were performed by incubating the radioligand [^3H]-4-(-2-[7-amino-2-{2-furyl}{1,2,4}triazolo{2,3-a} {1,3,5}triazin-5-yl-amino]ethyl)phenol ([^3H]-ZM241385) (1 nM) with the membrane suspension (50 μg of protein/100 μL) and different concentrations of the examined compounds for 60 min, at 4 °C, in 50 mM Tris HCl (pH 7.4), 10 mM MgCl2. Non-specific binding was determined in the presence of ZM241385 (1 μM) and was about 20% of the total binding. Competition binding experiments to A3ARs were carried out by incubating the membrane suspension (50 μg of protein/100 μL) with 0.5 nM [^125I]-N6-(4-aminobenzyl)-N-methylcarboxamidoadenosine ([^125I]-ABMECA) in the presence of different concentrations of the examined compounds for an incubation time of 120 min, at 4 °C, in 50 mM Tris HCl (pH 7.4), 10 mM MgCl2, 1 mM EDTA. Non-specific binding was defined as binding in the presence of 1 μM ABMECA and was always <10% of the total binding. Bound and free radioactivity were separated by filtering the assay mixture through Whatman GF/B glass-fiber filters, using a Brandel cell harvester (Brandel Instruments, Unterföhring, Germany). The filter bound radioactivity was counted by Packard Tri Carb 2810 TR scintillation counter (Perkin Elmer).
The protein concentration was determined according to a Bio-Rad method, with bovine albumin as a standard reference. Inhibitory binding constant (Ki) values were calculated from those of IC50 according to the Cheng–Prusoff equation, Ki = IC50/(1 + [C*]/KD*), where [C*] is the concentration of the radioligand, and KD* its dissociation constant. Ki and IC50 values were calculated by non-linear regression analysis, using the equation for a sigmoid concentration-response curve (Graph-PAD Prism, San Diego, CA, USA).

[4] = Solubility in testing medium; type: physicochemical; details: PBS + Tween 80 (2% w/w), pH 7.4, aqueous with cosolvent or surfactant or cyclodextrin

amount of permeated drug after 24 h [1]	EC50 (hA2AAR [2])	hA2AAR Efficacy (hA2AAR [2])	Ki (hA2AAR [3])	solubility [4]	Compound
15.0 ± 1.4 µg/mL	15.1 ± 1.3 nM	39 ± 3%	21 ± 2 nM	40.6 ± 0.16 µg/mL	N#Cc1c(N)nc(SCc2ncc[nH]2)c(C#N)c1-c1ccco1 [Compound 1, 2-Amino-4-(furan-2-yl)-6-[(1H-imidazol-2-ylmethyl)sulfanyl]pyridine-3,5-dicarbonitrile]
22.7 ± 1.0 µg/mL	11.3 ± 1 nM	40 ± 3%	24 ± 2 nM	27.3 ± 2.52 µg/mL	N#Cc1c(N)nc(SCc2ncc[nH]2)c(C#N)c1-c1cccs1 [Compound 5, 2-Amino-6-[(1H-imidazol-2-ylmethyl)sulfanyl]-4-(thiophen-2-yl)pyridine-3,5-dicarbonitrile]
